Patent US9446065B2, “Pharmaceutical composition for use in the treatment and/or the prevention of osteoarticular diseases” (BONE THERAPEUTICS, priority 2008, dated 2016)
“And” between values parts separate entries of the source, which are not always exact repeats. Equal entries are not always repeated. Where two headings read alike, the source gives them in different places.

Assays:
IL-1β = IL-1β detection (ELISA) in PBMC culture; type: cell-based, human; conditions: for IL-1β detection: HA 200 μg/mL, A2A 5 μM
Experimental: (§1) The effects of the combination clonidine and hyaluronic acid were tested in a model of Peripheral Blood Mononuclear Cells. In brief, PBMCs (Peripheral blood mononuclear cells) from heparinized venous blood of healthy volunteers were isolated by Ficoll-gradient centrifugation. MNC (Mononuclear cells) were washed three times in PBS and resuspended in RPMI-1640 medium supplemented with 100 U/mL penicillin, 100 μg/mL streptomycin, and 10% heat-inactivated FBS. Cells were seeded at 100.000 cells in 96-wel plate in a total volume of 200 μL/well.
(§2) PBMC, at 100.000 cells/200 μL, were plated in 96-well microtiter plates and stimulated or not 10 μg/mL phytohemagglutinin (PHA). Effects of hyaluronic acid “HA” (200 μg/mL) and p-aminoclonidine “A2A” (5 μM) were tested on PBMC.
IL-1β detection (By ELISA). Levels of IL-1β from PBMC or culture supernatants were measured by Quantikine ELISA kit (R&D Systems Inc, Minneapolis, USA). The minimum detectable concentration of IL-1β was estimated at 1.0 pg/mL.
(§3) The release of IL-1beta by PBMC and the proliferation of PBMC, induced by PHA stimulation, were set as controls, and compared with the measures for PBMC treated with HA and/or A2A.

[1] = test system: PBMC (Peripheral blood mononuclear cells); experiment: PBMC proliferation assay (3H-thymidine); type: cell-based, human; conditions: for Proliferation: HA 200 μg/mL, A2A 5 μM
Experimental: as §1, §2
Proliferation Assay. The culture was incubated with 1 μCi/mL 3H-thymidine for 24 h before end of culture to measure the proliferation. Then, cells were washed twice with ice-cold PBS and twice with ice-cold 5% trichloroacetic acid (TCA). Finally, cells were lysed with 0.1N NaOH-0.1% Triton-X100. Supernatants were collected and analyzed on a beta-counter in presence of scintillation liquid. Results were done in cpm (“count per minute”=disintegration number of radioactive element observed in series of successive counts of one minute).
as §3

IL-I beta = experiment: Inhibition of IL-I beta release by LPS-stimulated TH1 cells; type: cell-based
Experimental: The inhibition of IL-I beta release by alpha-2-adrenergic agonists, induced by LPS stimulation of TH1 cells, is measured under control conditions (dexamethasone).

acute pain = conditions: cited from earlier work
mono-arthritis symptoms = test system: mono-arthritis symptoms; parameters: Reduction in Pain: concentration or dose not given beside the values; conditions: cited from earlier work
[2] = PBMC + PHA 10 μg/mL, PBMC + PHA = 100
[3] = PBMC not stimulated, PBMC + PHA = 100
[4] = average data from meta-analyses and/or published studies

Question: With Nc1cc(Cl)c(N=C2NCCN2)c(Cl)c1 [A2A, p-aminoclonidine] as the compound, how does the “effect on IL-1beta secretion, in words” value (IL-1β; PBMC + PHA) read?
Answer: totally suppresses the increase in IL-1beta secretion

Question: What about the “effect on basal conditions, in words” value (IL-1β; unstimulated PBMC) of the same compound?
Answer: no effect

Question: And the “effect on PBMC proliferation, in words” value ([1]; PBMC + PHA)?
Answer: not able to inhibit PBMC proliferation

Question: What about the Proliferation ([1]; PBMC + PHA 10 μg/mL) of the same compound?
Answer: 16212 cpm

Question: And the Proliferation [1, 2]?
Answer: 101%

Question: And the Proliferation ([1]; PBMC not stimulated)?
Answer: 786 cpm

Question: What about the Proliferation [1, 3] of the same compound?
Answer: 4.9%

Question: With Brc1c(NC2=NCCN2)ccc2nccnc12 [Brimonidine] as the compound, how does the “effect on IL-I beta release, in words” value (IL-I beta) read?
Answer: no effects

Question: With C[C@@H]1C[C@H]2[C@@H]3CCC4=CC(=O)C=C[C@]4(C)[C@@]3(F)[C@@H](O)C[C@]2(C)[C@@]1(O)C(=O)CO [Dexamethasone] as the compound, how does the inhibition at 0.1 µM (IL-I beta; 10^−7 M, read-out: inhibition of IL-I beta secretion) read?
Answer: ~65%

Question: With N=C(N)N/N=C/c1c(Cl)cccc1Cl [Guanabenz] as the compound, how does the “effect on IL-I beta release, in words” value (IL-I beta) read?
Answer: no effects

Question: For Clc1cccc(Cl)c1NC1=NCCN1 [clonidine, N-(2,6-dichlorophenyl)-4,5-dihydro-1H-imidazol-2-amine], which “minimum effect duration in acute pain studies” value (acute pain; Alagol et al, 2005) is on record?
Answer: 4 h

Question: What about the “duration of effects in acute pain studies (not to exceed)” value (acute pain; Gentili et al, 2001) of the same compound?
Answer: ≤ 72 h

Question: For hyaluronic acid [HA], which “Improvement in Function” value (mono-arthritis symptoms; Arich et al., 2005) is on record?
Answer: −11%

Question: What about the “Reduction in Pain” value (mono-arthritis symptoms; Arich et al., 2005) of the same compound?
Answer: 0%

Question: And the “Reduction in Pain (max effect reported)” value (mono-arthritis symptoms; Arich et al., 2005)?
Answer: −17%

Question: And the “Improvement in Function” value (mono-arthritis symptoms; Kolarz et al., 2003)?
Answer: −23%

Question: And the “Reduction in Pain” value (mono-arthritis symptoms; Kolarz et al., 2003)?
Answer: −55%

Question: What about the “improvement in function, maximal effect reported in literature” value (mono-arthritis symptoms; Kolarz et al., 2003) of the same compound?
Answer: 23%

Question: What about the “improvement in pain, maximal effect reported in literature” value (mono-arthritis symptoms; Kolarz et al., 2003) of the same compound?
Answer: 55%

Question: And the “Reduction in Pain” value (mono-arthritis symptoms; Lo et al., 2004)?
Answer: −7%

Question: What about the “Reduction in Pain (max effect reported)” value (mono-arthritis symptoms; Lo et al., 2004) of the same compound?
Answer: −47%

Question: What about the “Reduction in Pain” value (mono-arthritis symptoms; Wang et al., 2004) of the same compound?
Answer: −8%

Question: And the “Reduction in Pain (max effect reported)” value (mono-arthritis symptoms; Wang et al., 2004)?
Answer: −24%

Question: What about the “Improvement in Function” value (mono-arthritis symptoms; [4]) of the same compound?
Answer: −15%

Question: What about the “Reduction in Pain” value (mono-arthritis symptoms; [4]) of the same compound?
Answer: −10%

Question: What about the “Side-Effects (major side effects only)” value (mono-arthritis symptoms; [4]) of the same compound?
Answer: None

Question: What about the benefit on swelling (mono-arthritis symptoms; literature) of the same compound?
Answer: no reported benefit on swelling

Question: What about the “decrease of pain score (VAS) in meta-analyses” value (mono-arthritis symptoms; meta-analyses that reassessed efficacy) of the same compound?
Answer: ≤ 15 mm

Question: What about the “increase of IL-1beta secretion over the stimulated conditions” value (IL-1β; PBMC + PHA) of the same compound?
Answer: 3 times

Question: What about the IL-1β detection (IL-1β; PBMC + PHA 10 μg/mL) of the same compound?
Answer: 6394 pg/mL

Question: And the IL-1β detection (IL-1β; [2])?
Answer: 293% and 292%

Question: And the IL-1β detection (IL-1β; PBMC not stimulated)?
Answer: 2095 pg/mL

Question: And the IL-1β detection (IL-1β; [3])?
Answer: 96%

Question: And the “reduction of PBMC proliferation” value ([1]; PBMC + PHA)?
Answer: 2 factor

Question: And the Proliferation ([1]; PBMC + PHA 10 μg/mL)?
Answer: 9087 cpm

Question: What about the Proliferation [1, 2] of the same compound?
Answer: 57% and 56%

Question: What about the Proliferation ([1]; PBMC not stimulated) of the same compound?
Answer: 364 cpm

Question: And the Proliferation [1, 3]?
Answer: 2.2%
